# Test results as given in patent US7132563B1, “Convenient method for the preparation of no-carrier-added O-(2-[18F]fluoroethyl)-L-tyrosine)” (Institute of Nuclear Energy Research, priority 2005, dated 2006).
# Where “and” joins values, the source holds several entries; their conditions need not be identical. Equal values may be shown once.
# Key:
# [1] = test system: F98 glioma implanted Fischer 344 rat; experiment: Biological distribution of L-[^18F]FET in F98 glioma-bearing Fischer 344 rat; format: in vivo
# Procedure: (1) Total of twenty Fischer 344 male rats will be assessed in vivo for L-[^18F]FET biological distribution. Use the intersection of bregma and sagittal midlines as original point; so as to implant F98 glioma cells (1×10^5 cells/10 μl) at the place of 3 mm left 5 mm upward and 5 mm depth. Biological distribution test will be carry out after 11˜12 days of brain tumor implantation.
# (2) Different volume of radioactive level is injected, injected volume of L-[^18F]FET for each Fischer 344 rat is 200˜300 μl, that is approximately 200˜250 μCi of activity.
# (3) Inject L-[^18F]FET via tail vein, and rats are sacrificed at 15, 30, 60, 90 and 120 minutes.
# (4) Dissection of rat organ is right after sacrifice. Scissors off chest and abdomen fur alone the line from genital pore upward to jowl. Next, scissors off chest above xiphisternal transversely. Open ribs aside, take blood sample from venous sinus with 0.5 ml syringe. Withdraw the needle after depletion of blood and collect the extracted heart. Collect the lung lobes with forcep.
# (5) Scissors off abdominal muscle from genital pore upward to the position below xiphisternal longitudinally. Then, scissors off the opening of upper and lower edges transversely, everts muscle layers to both sides and expose celiac organs. Search for bladder in lower abdomen and sequentially removes stomach, liver, spleen, small intestine, large intestine, kidney, and muscle.
# (6) After turn over the rat, scissors off fur of shoulder and removes exposed subcutaneous tumor. Cut scalp upward at lower margin of cranium above foramen magnum and expose cranial bone. Then, cut cervical portion transversely at foramen magnum and expose spinal cord. Inserts foramen magnum with scissors' tip while attach the inner surface of cranium; such that scissors' tip can reach the frontal edge of cranial cavity in order to scissor off the center of cranium. Use scissors to open cranium aside and expose brain tissue. Alone skull base insert scissors deeply to the front edge of cranial cavity in order to remove left-brain, right-brain and brain tumor.
# (7) Weight all organ samples; measure radioactivity with γ-counter and convert to % ID/g (% injection dose/g organ) of each organ for estimate the biological distribution of L-[^18F]FET. […] According to reports, L-[^18F]FET can pass through blood brain barrier (BBB) and enter brain by way of L amino acid transporter system. […] Tumor- to-normal brain ratio of L-[^18F]FET at 15, 30, 60, 90 and 120 minutes are 1.54, 1.74, 3.16, 3.14 and 2.34 respectively. […] Some papers reported that patient with tumor observes no significant accumulation of radioactivity in pancreas when use positron emission tomography (PET), the discrepant results were assumed that human and rat have different metabolic pathway. Furthermore, biological distribution study of L-[^18F]FET indicated radioactivity accumulation in tumor cells (expressed by % ID/g) are much higher than other normal organs (left-brain, small intestine, kidney, liver, blood and muscle) except pancreas, this means L-[^18F]FET can be a potential PET agent for substantially different site of tumor.
# F98 glioma cells = experiment: L-[^18F]FET uptake by F98 glioma tumor cells; format: cell-based, rat; conditions: for uptake ratio (radioactivity uptake of cells / total added radioactivity): 10 μCi/well
# Procedure: (1) In five six-well plates, put 1×10^6 F98 glioma cells and 2 ml DMEM (1 g glucose/l) into three wells.
# (2) Total of five time points (2, 5, 10, 30 minute and 1 hour) in this experiment and each time point use one six-well plate.
# (3) Predetermined activity of L-[^18F]FET or [^18F]FDG (10 μCi/well) is added into each well during the experiment. Radioactivity uptake of cells divided by total added radioactivity can obtain its calculated uptake ratio.
# F98 glioma cells intake L-[^18F]FET rapidly and maximal accumulation will reach after 10 minutes (uptake ratio 0.47%). As cell cannot metabolize L-[^18F]FET, therefore, the rate of L-[^18F]FET transportation by the cells become balance after ten minutes when add L-[^18F]FET; the accumulation of L-[^18F]FET in glioma cells only slightly decrease after 1 hour (uptake ratio 0.41%).
# [2] = test system: F98 glioma implanted Fischer 344 rat; experiment: PET and microPET imaging of tumor-bearing rat with L-[^18F]FET; format: in vivo; conditions: 400 μCi via tail vein
# Procedure: (1) Positron emission tomography (PET) studies of tumor-bearing rat (Fischer 344) with L-[^18F]FET will be carry out after 11˜12 days of brain tumor (F98 glioma) implantation.
# (2) Producing processes of L-[^18F]FET as described above, and estimates its administrating amount of agent according to the level of radioactivity.
# (3) At the very beginning, inject 400 μCi of L-[^18F]FET into tail vein. Temporarily anesthetize rats with ether at time of 0.5, 1, 1.5 and 2 hours. Fix rat on transparent acrylic board and place on PET table after securing stretched limbs on the board. Continuously anesthetize rats with isoflurane gas. Align implant portion of head with PET machine as to assure the fixation of original imaging position.
# (4) Adjust background value by blank scan before PET imaging.
# (5) Use […] radioactive source proceed transmission scan for adjust tissue attenuation.
# (6) Commence PET and microPET imaging. Perform image processing after reconstruction of acquired image data; the coronal and cross section scans show in FIGS. 3 and 9. […] In contrast to tumor site, normal tissue have lower radioactivity accumulation of L-[^18F]FET because of lower amino acid requirement.
# [3] = 15 min after tail vein injection, tumor-bearing rat
# [4] = 30 min after tail vein injection, tumor-bearing rat
# [5] = 60 min after tail vein injection, tumor-bearing rat
# [6] = 90 min after tail vein injection, tumor-bearing rat
# [7] = 120 min after tail vein injection, tumor-bearing rat
smiles,measurement,setting,value
"N[C@@H](Cc1ccc(OCC[18F])cc1)C(=O)O [L-[^18F]FET, O-(2-[^18F]fluoroethyl)-L-Tyrosine]",accumulated radioactivity in Blood,[1]; [3],0.41 ± 0.03 % ID/g
same,accumulated radioactivity in Heart,[1]; [3],0.30 ± 0.06 % ID/g
same,accumulated radioactivity in Kidney,[1]; [3],0.33 ± 0.01 % ID/g
same,accumulated radioactivity in Large intestine,[1]; [3],0.21 ± 0.01 % ID/g
same,accumulated radioactivity in Left brain,[1]; [3],0.08 ± 0.01 % ID/g
same,accumulated radioactivity in Liver,[1]; [3],0.27 ± 0.06 % ID/g
same,accumulated radioactivity in Lung,[1]; [3],0.32 ± 0.05 % ID/g
same,accumulated radioactivity in Muscle,[1]; [3],0.19 ± 0.03 % ID/g
same,accumulated radioactivity in Pancreas,[1]; [3],0.98 % ID/g and 0.98 ± 0.25 % ID/g
same,accumulated radioactivity in Right brain,[1]; [3],0.07 ± 0.02 % ID/g
same,accumulated radioactivity in Small intestine,[1]; [3],0.23 ± 0.11 % ID/g
same,accumulated radioactivity in Spleen,[1]; [3],0.31 ± 0.08 % ID/g
same,accumulated radioactivity in Stomach,[1]; [3],0.24 ± 0.05 % ID/g
same,accumulated radioactivity in Tumor,[1]; [3],0.12 ± 0.02 % ID/g
same,Tumor-to-normal brain ratio,[1]; 15 minutes after injection,1.54
same,accumulated radioactivity in Blood,[1]; [4],0.39 ± 0.03 % ID/g
same,accumulated radioactivity in Heart,[1]; [4],0.40 ± 0.07 % ID/g
same,accumulated radioactivity in Kidney,[1]; [4],0.34 ± 0.06 % ID/g
same,accumulated radioactivity in Large intestine,[1]; [4],0.28 ± 0.05 % ID/g
same,accumulated radioactivity in Left brain,[1]; [4],0.25 ± 0.05 % ID/g
same,accumulated radioactivity in Liver,[1]; [4],0.37 ± 0.07 % ID/g
same,accumulated radioactivity in Lung,[1]; [4],0.43 ± 0.09 % ID/g
same,accumulated radioactivity in Muscle,[1]; [4],0.28 ± 0.01 % ID/g
same,accumulated radioactivity in Pancreas,[1]; [4],1.76 % ID/g and 1.76 ± 0.16 % ID/g
same,accumulated radioactivity in Right brain,[1]; [4],0.21 ± 0.03 % ID/g
same,accumulated radioactivity in Small intestine,[1]; [4],0.52 ± 0.26 % ID/g
same,accumulated radioactivity in Spleen,[1]; [4],0.50 ± 0.11 % ID/g
same,accumulated radioactivity in Stomach,[1]; [4],0.36 ± 0.06 % ID/g
same,accumulated radioactivity in Tumor,[1]; [4],0.43 ± 0.10 % ID/g
same,Tumor-to-normal brain ratio,[1]; 30 minutes after injection,1.74
same,accumulated radioactivity in Blood,[1]; [5],0.38 ± 0.00 % ID/g
same,accumulated radioactivity in Heart,[1]; [5],0.43 ± 0.07 % ID/g
same,accumulated radioactivity in Kidney,[1]; [5],0.41 ± 0.08 % ID/g
same,accumulated radioactivity in Large intestine,[1]; [5],0.42 ± 0.06 % ID/g
same,accumulated radioactivity in Left brain,[1]; [5],0.40 ± 0.06 % ID/g
same,accumulated radioactivity in Liver,[1]; [5],0.41 ± 0.06 % ID/g
same,accumulated radioactivity in Lung,[1]; [5],0.43 ± 0.07 % ID/g
same,accumulated radioactivity in Muscle,[1]; [5],0.36 ± 0.04 % ID/g
same,accumulated radioactivity in Pancreas,[1]; [5],2.55 % ID/g and 2.55 ± 0.31 % ID/g
same,accumulated radioactivity in Right brain,[1]; [5],0.34 ± 0.03 % ID/g
same,accumulated radioactivity in Small intestine,[1]; [5],0.65 ± 0.04 % ID/g
same,accumulated radioactivity in Spleen,[1]; [5],0.51 ± 0.09 % ID/g
same,accumulated radioactivity in Stomach,[1]; [5],0.40 ± 0.05 % ID/g
same,accumulated radioactivity in Tumor,[1]; [5],1.26 ± 0.22 % ID/g
same,Tumor-to-normal brain ratio,[1]; 60 minutes after injection,3.16
same,accumulated radioactivity in Blood,[1]; [6],0.37 ± 0.03 % ID/g
same,accumulated radioactivity in Heart,[1]; [6],0.47 ± 0.02 % ID/g
same,accumulated radioactivity in Kidney,[1]; [6],0.42 ± 0.07 % ID/g
same,accumulated radioactivity in Large intestine,[1]; [6],0.46 ± 0.04 % ID/g
same,accumulated radioactivity in Left brain,[1]; [6],0.48 ± 0.14 % ID/g
same,accumulated radioactivity in Liver,[1]; [6],0.49 ± 0.01 % ID/g
same,accumulated radioactivity in Lung,[1]; [6],0.45 ± 0.02 % ID/g
same,accumulated radioactivity in Muscle,[1]; [6],0.44 ± 0.10 % ID/g
same,accumulated radioactivity in Pancreas,[1]; [6],2.28 % ID/g and 2.28 ± 0.76 % ID/g
same,accumulated radioactivity in Right brain,[1]; [6],0.48 ± 0.08 % ID/g
same,accumulated radioactivity in Small intestine,[1]; [6],0.43 ± 0.11 % ID/g
same,accumulated radioactivity in Spleen,[1]; [6],0.48 ± 0.11 % ID/g
same,accumulated radioactivity in Stomach,[1]; [6],0.43 ± 0.04 % ID/g
same,accumulated radioactivity in Tumor,[1]; [6],1.49 % ID/g and 1.49 ± 0.40 % ID/g
same,Tumor-to-normal brain ratio,[1]; 90 minutes after injection,3.14
same,maximum accumulation in normal brain tissue,"[1]; 90 minutes after injection, tumor-bearing rat",0.48 % ID/g
same,accumulated radioactivity in Blood,[1]; [7],0.36 ± 0.03 % ID/g
same,accumulated radioactivity in Heart,[1]; [7],0.43 ± 0.07 % ID/g
same,accumulated radioactivity in Kidney,[1]; [7],0.41 ± 0.09 % ID/g
same,accumulated radioactivity in Large intestine,[1]; [7],0.38 ± 0.09 % ID/g
same,accumulated radioactivity in Left brain,[1]; [7],0.43 ± 0.09 % ID/g
same,accumulated radioactivity in Liver,[1]; [7],0.41 ± 0.09 % ID/g
same,accumulated radioactivity in Lung,[1]; [7],0.40 ± 0.06 % ID/g
same,accumulated radioactivity in Muscle,[1]; [7],0.37 ± 0.10 % ID/g
same,accumulated radioactivity in Pancreas,[1]; [7],2.24 % ID/g and 2.24 ± 0.72 % ID/g
same,accumulated radioactivity in Right brain,[1]; [7],0.34 ± 0.04 % ID/g
same,accumulated radioactivity in Small intestine,[1]; [7],0.41 ± 0.09 % ID/g
same,accumulated radioactivity in Spleen,[1]; [7],0.47 ± 0.04 % ID/g
same,accumulated radioactivity in Stomach,[1]; [7],0.41 ± 0.03 % ID/g
same,accumulated radioactivity in Tumor,[1]; [7],1.02 ± 0.16 % ID/g
same,Tumor-to-normal brain ratio,[1]; 120 minutes after injection,2.34
same,time of maximum accumulation in brain tumor and normal brain tissue,"[1]; biological distribution, tumor-bearing rat",90 min
same,radioactivity in urine sample (excretion via urine),[1]; tumor-bearing rat,high level of radioactivity
same,time to maximal accumulation in cells,F98 glioma cells,10 min
same,uptake ratio (radioactivity uptake of cells / total added radioactivity),F98 glioma cells; after 10 minutes (maximal accumulation),0.47%
same,uptake ratio (radioactivity uptake of cells / total added radioactivity),F98 glioma cells; after 1 hour,0.41%
same,radioactivity accumulation in brain tumor on PET imaging,[2]; F98 glioma Fischer 344 rat,significant radioactivity accumulation in brain tumor
same,time of maximum uptake in brain tumor on PET imaging,"[2]; imaging at 0.5, 1, 1.5 and 2 hours",90 min
